Structures can show the parent of a compound that is named as a salt. Marks after values point to notes of the source that are not given here. Blank lines part the entries; values can stand above or below the compound they belong to.
Experiments:
[1] = test system: hinokitiol-rescued fet3Δftr1Δ yeast; assay: Chemical inhibition of yeast cell growth with inhibitors of Pma1, V-ATPase; format: cell-based, Saccharomyces cerevisiae; details: 10 μM hinokitiol, 10 μM FeCl3
Experimental: Increasing dosages of caspofungin (Sigma SML0425), ebselen (Sigma 70530), or bafilomycin B1 (Santa Cruz sc-202072) (40X stocks in DMSO) were added to a yeast suspension (10-fold dilution from OD600=0.1) to give the indicated final dose. EC50 values were calculated from fitting of yeast growth curves using GraphPad PRISM.

[2] = test system: wild-type yeast (WT); assay: Toxicity to wild type yeast (structure-activity study, FIG. 25)
Experimental: (§1) Growth rescue in yeast was performed similar to previously reported (20) using 10 μM hinokitiol in low iron SD liquid media containing 10 μM FeCl3 in a 96-well plate unless otherwise noted. Wild type and fet3Δftr1Δ controls treated with vehicle (DMSO) were performed under identical conditions using the same low iron SD media containing 10 μM FeCl3 in the absence of hinokitiol. Yeast were grown overnight in YPD media and diluted at an OD600 of 0.1 in SD media, diluted 10-fold, and incubated at 30° C. with continuous shaking (200 rpm). The OD600 was obtained 24-48 hours after inoculation unless otherwise noted.
(§2) Small molecule dose-response (FIG. 1F) with hinokitiol and C2-deoxy hinokitiol (C2deOHino, see synthesis below) was determined by addition of the small molecule (40X stock solution in DMSO) to give the indicated final concentrations.

[3] = test system: fet3Δftr1Δ yeast; assay: Growth rescue of fet3Δftr1Δ yeast with small molecules in liquid media; format: cell-based, Saccharomyces cerevisiae; details: liquid low iron SD media, 10 μM FeCl3
Experimental: as §1, §2

[4] = not run under identical conditions, cited from earlier work; for E^0 literature: Table 6; for E^0 Aqueous, literature value: Table 2, in parenthesis
[5] = test system: DMT1-deficient Caco-2 monolayers; assay: 55Fe uptake and transport in DMT1-deficient Caco-2 monolayers; details: apical addition (hinokitiol 500 nM); pH 5.5 apical, pH 7.4 basolateral; four hours
Experimental: Media from differentiated Caco-2 monolayers (P25-50, 21-28 days post seeding) grown on PET inserts in 6-well plates was aspirated, and monolayers were rinsed with PBS. 2 mL of basolateral fluid (serum-free DMEM at pH=7.4 in 10 mM HEPES buffer) was added to the basolateralside, and 1 mL of apical fluid (serum-free DMEM at pH=5.5 in 10 mM MES buffer) containing 200 nM ^55FeCl3 or the indicated concentration of FeCl3 and either DMSO vehicle, hinokitiol, C2deOHino, deferiprone, PIH, SIH, or deferoxamine mesylate (Sigma D9533) (500 nM Hino/C2deOHino for DMT1-deficiency, 1 μM Hino/C2deOHino for FPN1-deficiency, or indicated concentration of small molecule from a 1000X stock in DMSO) was added to the apical side via addition on the wall of the membrane insert without disrupting the cell monolayer. The monolayers were then incubated for four hours at 37° C. unless otherwise noted. A 100 μL aliquot of the basolateral fluid was removed, diluted in scintillation cocktail, and radioactivity was determined on a liquid scintillation counter to quantify relative amounts of ^55Fe transport. To determine intracellular ^55Fe, the basolateral and apical media was removed, and the monolayer was rinsed with PBS (×2). The cells were then lysed with 500 μL of 200 mM NaOH with nutator mixing overnight, and radioactivity was determined on a liquid scintillation counter after diluting the cell lysate in scintillation cocktail. All values were normalized to shControl monolayers unless otherwise noted. Absolute iron levels were determined through calibration of ^55Fe radioactivity levels with known standards and average mg of protein per membrane was determined by protein lysis with RIPA buffer containing protease inhibitors and quantified through a BCA kit according to manufacturer instructions.
TEER determination in Caco-2 monolayers (FIG. 12D and FIG. 14L) To determine Caco-2 membrane integrity, transport studies were performed as described above, except for the use of non-radioactive iron instead of ^55FeCl3. At the indicated time points, the transepithelial electrical resistance (TEER) was determined with an epithelial voltohmmeter and compared to the TEER of the membrane at the beginning of the experiment.

[6] = in parenthesis, cited from earlier work; for pFe^III, literature value: References 104, 106
[7] = Electrochemical studies (cyclic voltammetry) of iron:chelator complexes; format: physicochemical
Experimental: Potentiostatic electrochemical methods were performed on a CH Instruments electrochemical workstation (model 760 C, Austin, TX) on a three-electrode cell. Hg working electrodes were fabricated by the electrodeposition of Hg on a Pt wire utilizing the procedure previously described by Barton et al. (70). All experiments were reported versus a Ag/AgCl reference electrode and utilized a graphite auxiliary electrode. The electrolyte was sparged with UHP argon before measurements. A positive pressure of argon was maintained throughout the experiments.
Unless otherwise indicated, experiments used a 0.1 M Tris buffer in H2O or 1:1 MeOH:H2O at pH=7.2 using HNO3 and KOH as titrant. Unless otherwise indicated, experiments used a 100 mV/s scan rate, 100 μM Fe(NO3)3, and 500 μM small molecule. All redox potentials are recorded versus a normal hydrogen electrode (NHE).
The estimated redox potential of Fe(Hino)n was determined through extrapolation of the best-fit line of the determined redox potentials of Fe(Hino)n as a function of the concentration of MeOH in the 0.1 M Tris buffer at pH=7.2.

[8] = Iron (II) binding affinity, ferrozine competition assay; details: pH 7.0
Experimental: (§3) Specifically, the association constant for iron (II) was determined by a ferrozine competition assay (KA of ferrozine=3.65×10^15) (60). FeCl2 (25 μM) was pre-mixed with ferrozine (75 μM) in a 25 mM MES/Tris buffer at pH=7.0 containing 62.5 mM sodium ascorbate. Then increasing concentrations of small molecule (from 40X stocks in DMSO) were added to the indicated final concentrations. The solutions were allowed to equilibrate for 24 hours before reading of the absorbance at 562 nm. […] The system was allowed to equilibrate overnight, and the absorbance corresponding to the Fe(chelator)3 complex was determined. The EC50 values for each chelator were calculated by a nonlinear curve fit (Hill1) on OriginPro by plotting the absorbance vs. concentration of titrant, and the KA for each complex was determined from the equation: KA, ligand=(KA, competitor*[EC50])/[ligand] where the ligand is the molecule originally bound to iron, and the competitor is the competing chelator.

[9] = Iron (III) binding affinity, EDTA or citrate competition assay; details: for KA for iron (III): EDTA competition (citrate for maltol), pH 7.0; for pFe^III: estimated from known pFe of EDTA (citrate for maltol)
Experimental: as §3

[10] = Lipophilicity determination for small molecule iron chelates (octanol-water partition); format: physicochemical; details: octanol-water partition coefficient
Experimental: Concentrations of small molecule in water were determined via UV-Vis spectroscopy compared to known initial standards.

[11] = WST-8 toxicity in Caco-2 cells; details: human, wild type Caco-2 cells
Experimental: Determination of small molecule-mediated toxicity in Caco-2, MEL, and/or J774 cells was performed according to manufacturer instructions using a WST-8 kit (Cayman Chemical 10010199) similar to previously reported (76) using a 1000× stock of the indicated small molecule in DMSO to give the indicated final concentration.

[12] = test system: fet3Δftr1Δ yeast; assay: Growth rescue of iron-deficient yeast with small molecules on agar plates; format: cell-based, Saccharomyces cerevisiae; details: low iron SD-agar plates, 10 μM FeCl3
[13] = Iron efflux from liposomes using ferrozine; format: biochemical; details: 5 μM small molecule
Experimental: Iron (III) efflux from POPC liposomes was determined similar to previously reported (64). POPC liposomes were prepared as similarly reported (65) using 30 mM FeCl3, 62.5 mM citrate at pH=7.0 in 25 mM Mes/Tris buffer. External iron was removed by size exclusion chromatography using Sephadex G-50 and eluting with external buffer. External buffer consisted of 62.5 mM ascorbate at pH=7.0 in 25 mM Mes/Tris buffer. The liposomes were diluted to 1 mM phosphorus in this buffer. Ferrozine (Sigma 160601) was added (100X stock in external buffer) to a final concentration of 500 μM. Liposomal suspension was then transferred to a 96-well plate, and either DMSO or 5 μM hinokitiol, C2deOHino, deferiprone, or PIH (40X stock solution in DMSO) were added to initiate the experiment. The OD562 was determined every minute over the course of 2 hours using a plate-reader with continuous shaking at 30° C. to detect the relative amounts of external ferrozine-iron chelate at the indicated times. After 2 hours, liposomes were lysed with Triton-X to give 100% iron efflux.
Iron (II) efflux was performed as described above, however, the internal buffer alternatively consisted of 30 mM FeSO4, 62.5 mM ascorbate at pH=7.0 in 25 mM Mes/Tris buffer and Triton-X lysis was performed after 1 hour.
The rates of iron efflux with increasing concentrations of intraliposomal iron and/or hinokitiol were determined as described above using the indicated concentration of iron and hinokitiol. For the varying concentrations of iron, hinokitiol (10 μM) was added to the POPC liposomes, and the change in absorbance at 562 nm was determined over 2 hours. For the varying concentrations of hinokitiol, 30 mM intraliposomal iron was used as described above. The concentration of iron outside of liposomes was determined using the extinction coefficient for ferrozine-iron (27,900 M^−1 cm^−1) (66). This was used to determine the amount of iron released from liposomes at the indicated times using the total volume for each experiment. Rates of iron efflux were determined after one hour of hinokitiol treatment.

Compound: CC[C@H](C)C[C@H](C)CCCCCCCCC(=O)N[C@H]1C[C@@H](O)[C@@H](NCCN)NC(=O)[C@@H]2[C@@H](O)CCN2C(=O)[C@H]([C@H](O)CCN)NC(=O)[C@H]([C@H](O)[C@@H](O)c2ccc(O)cc2)NC(=O)[C@@H]2C[C@@H](O)CN2C(=O)[C@H]([C@@H](C)O)NC1=O [caspofungin]
- sensitivity of hinokitiol-rescued fet3Δftr1Δ yeast relative to hinokitiol-treated wild type yeast [1]: equisensitive

Compound: CC(C)CCc1cccc(O)c(=O)c1 [4-isopentyl tropolone]
- toxicity to wild type yeast [2]: most toxic
- restoration of fet3Δftr1Δ yeast growth, small molecule dose-response [3]: no rescue

Compound: NC(=O)c1ccc[n+]([C@@H]2O[C@H](COP(=O)([O-])OP(=O)(O)OC[C@H]3O[C@@H](n4cnc5c(N)ncnc54)[C@H](OP(=O)(O)O)[C@@H]3O)[C@@H](O)[C@H]2O)c1 [NADP^+]
- E^0 literature [4]: 108 mV vs. N.H.E.

Compound: O=c1cccccc1O [Tropolone, tropolone]
- toxicity to wild type yeast [2]: does not show toxicity
- restoration of fet3Δftr1Δ yeast growth, small molecule dose-response [3]: shows rescue of Fet3Ftr1 yeast, but only at higher concentrations

Compound: CO/C1=C\C(C)=C\[C@@H](C)[C@@H](O)[C@@H](C)C/C(C)=C/C=C/[C@H](OC)[C@@H]([C@@H](C)[C@@H](O)[C@H](C)[C@@]2(O)C[C@@H](OC(=O)/C=C/C(=O)NC3=C(O)CCC3=O)[C@H](C)[C@@H](C(C)C)O2)OC1=O [bafilomycin, bafilomycin B1]
- sensitivity of hinokitiol-rescued fet3Δftr1Δ yeast relative to hinokitiol-treated wild type yeast [1]: increased sensitivity

Compound: CC(=O)N(O)CCCCCNC(=O)CCC(=O)N(O)CCCCCNC(=O)CCC(=O)N(O)CCCCCN [deferoxamine, deferoxamine mesylate]
- iron uptake and transepithelial transport [5]: did not promote both uptake and transport

- E^0 Aqueous ([7]; Table 2): 41 mV vs. N.H.E.
- E^0 1:1 MeOH:H2O ([7]; Table 2, 0.1 M Tris, pH 7.2): 8 mV vs. N.H.E.
- KA for iron (II) [8]: 7.8 × 10^13
- KA for iron (III) [9]: 3.9 × 10^17
- pFe^III [9]: 15.4^±
Compound: Cc1occc(=O)c1O [Maltol, maltol]
- pFe^III, literature value [6]: (15)^§
- E^0 Aqueous, literature value [4]: (40)*** mV vs. N.H.E.

Compound: O=c1cccccc1O [Tropolene]
- logP Fe^III Complex [10]: −0.03
- E^0 Aqueous ([7]; Table 2): 39 mV vs. N.H.E.
- E^0 1:1 MeOH:H2O ([7]; Table 2, 0.1 M Tris, pH 7.2): 38 mV vs. N.H.E.
- E^0 Aqueous, literature value [4]: (0)** mV vs. N.H.E.
- KA for iron (II) [8]: 2.3 × 10^15
- KA for iron (III) [9]: 1.1 × 10^24
- pFe^III [9]: 22^+

Compound: Cc1ncc(CO)c(C=NNC(=O)c2ccncc2)c1O [PIH, pyridoxal isonicotinoyl hydrazone]
- EC90 [11]: 31 µM
- iron uptake and transepithelial transport [5]: did not promote both uptake and transport
- growth rescue of fet3Δftr1Δ yeast [12]: no growth rescue
- transport of ferrous and ferric iron across model liposomal membranes [13]: minimal transport

- E^0 Aqueous ([7]; Table 6): 181 mV vs. N.H.E.
- E^0 1:1 MeOH:H2O ([7]; Table 6, pH 7.2, 500 μM small molecule, 100 μM Fe(NO3)3): 139 mV vs. N.H.E.
Compound: O=C([O-])CN(CCN(CC(=O)[O-])CC(=O)[O-])CC(=O)[O-].[Fe+3] [Fe^III(EDTA)]
- E^0 literature [4]: 137^§ mV vs. N.H.E.

Compound: Cc1c(O)c(=O)ccn1C [Deferiprone, deferiprone]
- pFe^III, literature value [6]: (21)^§
- EC90 [11]: > 100 µM
- E^0 Aqueous ([7]; Table 2): −420 mV vs. N.H.E.
- E^0 1:1 MeOH:H2O ([7]; Table 2, 0.1 M Tris, pH 7.2): −410 mV vs. N.H.E.
- iron uptake and transepithelial transport [5]: did not promote both uptake and transport
- E^0 Aqueous, literature value [4]: (−423)^# mV vs. N.H.E.
- growth rescue of fet3Δftr1Δ yeast [12]: no growth rescue
- KA for iron (II) [8]: 2.1 × 10^15
- KA for iron (III) [9]: 1.2 × 10^24
- pFe^III [9]: 22^+
- transport of ferrous and ferric iron across model liposomal membranes [13]: minimal transport

- E^0 Aqueous ([7]; Table 2): 131 mV vs. N.H.E.
- E^0 1:1 MeOH:H2O ([7]; Table 2, 0.1 M Tris, pH 7.2): 139 mV vs. N.H.E.
- KA for iron (II) [8]: 1.2 × 10^15
Compound: O=C(O)CN(CCN(CC(=O)O)CC(=O)O)CC(=O)O [EDTA]
- KA for iron (III), literature value ([6]; Reference 60): (1.7 × 10^24)*
- pFe^III, literature value [6]: (22)^∥
- E^0 Aqueous, literature value [4]: (137)**** mV vs. N.H.E.

Compound: O=C(NN=Cc1ccccc1O)c1ccncc1 [SIH, salicylaldehyde isonicotinoyl hydrazone]
- iron uptake and transepithelial transport [5]: did not promote both uptake and transport
- growth rescue of fet3Δftr1Δ yeast [12]: no growth rescue

From US12084411B2, “Hinokitiol analogues, methods of preparing and pharmaceutical compositions thereof” (The Board of Trustees of the University of Illinois, priority 2018, dated 2024)
